From patent publication US7601856B2 (Wyeth, priority 2006, dated 2009) come the findings set out here.

pIC50: −log10 of the molar value.

Series [1] concerns isolated rat bladder strips. The series is described as follows: Inhibition of contractions of isolated rat bladder strips. Conditions: 0.5 h, concentration eliciting 50% inhibition of pre-drug contractile activity, strips stimulated with additional 15 mM KCl, 30 minute challenge per concentration, read-out: IC50.

As usually defined, the pIC50 is the IC50 on a negative log10 scale, so that one unit is a factor of ten. As usually defined, the melting point is the temperature, or range, at which the solid turns liquid. Consider `CCN(CC)C(=O)Nc1ccc2oc3c(c2c1)CCCC3` [Example 84, 1,1-DIETHYL-3-(6,7,8,9-TETRAHYDRO-DIBENZOFURAN-2-YL)-UREA], for which the melting point lay within 179 to 180 °C. Besides, the pIC50 in series [1] is 5.30 to 5.52.
